Consider one compound from patent publication US12497396B2, “Nitrogen-containing heterocyclic derivatives, method therefor and application therefor as inhibitors of KRAS G12C for the treatment of cancers” (SHANGHAI HANSOH BIOMEDICAL CO., LTD., priority 2019, dated 2025).

Where two headings read alike, the source gives them in different places.

The term MRT denotes the average time that molecules of a dose stay in the body.

Data set [1] relates to human lung cancer NCI-H358 cell xenograft. In words: In vivo pharmacodynamics on human lung cancer NCI-H358 cell xenograft tumor model. Details: species or system BALB/c nude mice. As for the experimental part: • BALB/c nude mice, 6-8 weeks old, female, purchased from Shanghai Xipuer-Bikai Experimental Animal Co., Ltd. 6.3.2 Cell Culture and Cell Suspension Preparation • 1) MiaPaca-2 cells were taken out from the cell bank and resuscitated with DMEM medium (DMEM+10% FBS), the resuscitated cells were placed in a cell culture flask (labeled with cell type, date, name of cultured person, etc.) and cultured in a CO2 incubator (incubator temperature was 37° C., CO2 concentration was 5%) (the method of resuscitating NCI-H358 cells was the same as MiaPaca-2 cells in test embodiment 5, and the culture medium was changed to RPMI-1640 medium). • 2) Passage was conducted every three to five days, and the cells was continued to be cultured in CO2 incubator after passage. The process was repeated until the cell count meets the in vivo pharmacodynamic requirements. • 3) MiaPaca-2 cells were collected and counted by automatic cell counter, according to the counting results, the cells were re-suspended with PBS and Matrigel (ratio was 1:1) to make cell suspension (cell density was 5×10^7/mL), then placed in a ice box for use (NCI-H358 cells were re-suspended with PBS without adding Matrigel, cell density was 1×10^8/mL). 6.3.3 Sample Preparation: • 1) Solvent: solvent (0.5% CMC-Na+1% Tween 80), storage condition: 4° C.
0.5 g of CMC-Na was weighted, dissolved in ddH2O, then 1.0 mL of Tween 80 was added and the mixture was stirred to mix well, and the volume was finally set to 100 mL. • 2) Compound to be tested (10 mg/kg) was prepared:
8.42 mg of AMG510 compound was weighted, 8.260 mL of solvent was added, a uniform solution was obtained by ultrasound, vortexing and stirring.
7.81 mg of embodiment compound 165-1 was weighted, 7.654 mL of solvent was added, a uniform solution was obtained by ultrasound, vortexing and stirring.
• 1) Before inoculation, nude mice were labeled with disposable universal ear tags of rats and mice; • 2) when inoculating, the cell suspension was mixed well, 0.1-1 mL cell suspension was extracted with a 1 mL syringe, bubbles were removed, and then the syringe was put on an ice bag for later use; • 3) the nude mice was held with left hand, the right back of nude mice near the right shoulder (inoculation site) was disinfected with 75% alcohol, and inoculation was started after 30 seconds; • 4) the experimental nude mice were inoculated in turn (each mouse was inoculated with 0.1 mL of cell suspension); 6.3.4 Tumor-Bearing Mouse were Measured, Grouped, and Administered: • 1) According to the tumor growth, the tumor was measured on the 18th day after inoculation, and the tumor size was calculated. tumor volume (mm^3)=length (mm)×width (mm)×width (mm)/2 Tumor volume calculation: • 2) The tumor-bearing mice were grouped according to their body weight and tumor size using a randomized grouping method. • 3) According to the grouping results, the administration of the test drug was started (administration method: oral administration; administration dose: 10 mg/kg; administration volume: 10 mL/kg; administration frequency: once a day; administration period: 21 days; solvents: 0.5% CMC/1% Tween 80). • 4) The tumor was measured and weighed twice a week after the test drug was started to be given. • 5) After the experiment, all animals were euthanized. • 6) Data was processed with software such as Excel. […]
On the technique in general: A xenograft is tissue or cells of one species grown in another, often human tumour cells in immunodeficient mice.

Data set [2] in a line: Pharmacokinetics in MiaPaca 2 tumor-bearing mice (plasma, tumor). Format: in vivo. The settings on record: female, mouse, po, 6 mg/kg p.o. How it is done:
The pharmacokinetic behavior of embodiment compound 165 and AMG-510 compound, administered orally at a dose of 6 mg/kg, in mice (plasma, tumor tissue and intestine) was studied using MiaPaca 2 tumor-bearing mice as test animals.
24 MiaPaca 2 tumor-bearing mice, females. 3 for each time point (0 h, 1 h, 2 h, 4 h, 6 h, 8 h, 16 h, 24 h). Shanghai xipuer-bikai Laboratory Animal Co., Ltd, Animal Production License No. (SCXK (Shanghai) 2018-0006.
Embodiment compound 165-1 and compound AMG-510 were weighed and dissolved in the solution, the mixture was shaken well, and ultrasound was performed for 15 minutes to obtain a uniform suspension with a concentration of 0.6 mg/mL.
MiaPaca 2 tumor-bearing mice were administered at a dose of 6 mg/kg in a volume of 10 mL/kg, respectively, based on body weight p.o. after fasting (animals were not administered at point 0 h).
Before and after administration, mice were sacrificed with CO2, 0.5 mL blood was collected from the heart and placed in EDTA-2K tube, centrifuged at 4° C. […] The duodenum, ileum and colon tissues were cut with scissors, the contents were removed and cleaned twice with PBS, after absorbing water with absorbent paper, they were weighed, placed in a 2 mL centrifuge tube and stored at −80° C.

On to `C=CC(=O)N1C[C@H](C)N(c2nc(=O)n(-c3c(SC)ccnc3C(C)C)c3nc(-c4c(N)ccc(Cl)c4F)c(Cl)cc23)C[C@H]1C` (single isomer, unassigned) [Embodiment 165-1], for which, in data set [1] (Day 15, 10 mpk oral once a day), the “TGI (%) Day 15” value stood at 67.41%. In data set [1] (Day 15, 10 mpk oral once a day), the “tumor volume (mm^3, Mean ± SD) Day 15” value turned out to be 267 ± 155 mm^3. Further, the “ΔT/ΔC(%) Day 15” value in data set [1] (Day 15, 10 mpk oral once a day) came out at 32.59%. For the same compound, the “tumor volume (mm^3, Mean ± SD) Day 0” value in data set [1] (baseline Day 0, 10 mpk oral once a day) stood at 203 ± 74 mm^3. Moreover, in data set [2] (exposure in tumor to exposure in plasma, read-out: Ratio (T/P)), the Kp came out at 0.57. Moreover, the mean residence time (MRT) was 0.9 h in data set [2] (plasma, read-out: MRT (hr) Plasma) and 1.5 h in data set [2] (tumor, read-out: MRT (hr) Tumor). Further, the half-life in data set [2] (plasma, read-out: T1/2 (hr) Plasma (converted)) was 0.5 h; in data set [2] (tumor, read-out: T1/2 (hr) Tumor (converted)), 0.9 h.
